Laboratory results reported in patent US20100087399A1 (priority 2007, published 2010).
Several values for one entry are separate records, joined by “and”; a condition that tells them apart may be missing. Identical values can stand only once.

How the values were obtained:
NF κB [1] = experiment: Level of active NF κB in cancer cells of ascitic fluid of SK-OV-3 tumor-bearing nude mice; format: in vivo; conditions: 0 mg/kg CMA
Experimental: (§1) The level of active NF κB in cell extract was measured with StressXpress NF κB, p50 ELISA Kit (StressGen, cat. No EKS-445) and luminescent spectrophotometer SM 2203 (Solar, Belarus).
To study the ability of different amounts of CMA to inhibit the NF κB activity, tumor growth and to increase the survival rate in combination with a chemotherapeutic agent, BALB/c female nude mice (6 to 8 weeks of age) were intraperitoneally injected with SK-OV-3 cells (1×10^7 cells/0.5 ml media/mouse). The all mice were divided into the several groups of animals (32 animals per group) which were treated with different doses of CMA, its salts or its ester. All mice were injected also ether with vehicle (diluent) or with chemotherapeutic agent or with or combinations of chemotherapeutic agent. Some groups were injected additionally with one or other aromatase inhibior, along with chemotherapeutic agent. Cisplatin (CP) was administered at dose 5 mg/kg intraperitoneally once weekly for the first 3 weeks; Doxorubicin (Dox) was given 8 mg/kg intravenously on days 0 and 7; Paclitaxel (Pcl) was injected intravenously at dose 10 mg/kg body weight thrice weekly, on alternate days for 4 weeks; 10 mg/kg/day. Toremifen was administered per os at dose 10 mg/kg/day in starch gel. Anastozole was injected subcutaneously with 5 μg of […] in 0.1 mL of PBS. CMA was administered once a day on each second day.
Also, the day of 50% survival rate was scored for other 16 animals in each group group. The serum alpha interferon (alpha IFN) level was measured 2 hours after first administration of CMA, its salts or it ester. Mouse IFN-alpha was measured in serum was detected (in pg/ml) using the enzyme-linked immunosorbent assay kit purchased from PBL Biomedical Laboratories (USA, Piscataway, N.J.).

alpha interferon = experiment: Serum alpha interferon in SK-OV-3 tumor-bearing nude mice (ELISA); format: in vivo; conditions: 0 mg/kg CMA
SK-OV-3 cells = experiment: Survival of nude mice intraperitoneally injected with SK-OV-3 cells; format: in vivo; conditions: 0 mg/kg CMA
ovarian cancer [2] = experiment: Clinical case reports of combined therapy of ovarian cancer (Examples 7-9); format: in vivo, human; conditions: Example 7: stage III patient; 2 courses of cisplatin alone
NF κB [3] = experiment: NF κB activation caused by chemotherapeutic agent in OVCAR-3 cells; format: cell-based, human; parameters: level of active NF κB (as percents of control) in the absence of CMA: concentration or dose not given beside the values; conditions: for level of active NF κB (as percents of control) in the presence of CMA: its salt or ester 1 × 10^−12 M
Experimental: as §1
The experiments were performed as described in Example 1. The human ovarian carcinoma cell lines OVCAR-3 was used. The cells were incubated at 37° C. in RPMI 1640 medium supplemented with 10% embryonic calf serum. […] Corresponding chemical agent or the vehicle (control) was added to the culture medium simultaneously with CMA, its salt or ester (1×10^−12 M). The cells were separated by centrifugation. The level of active NF κB was assessed in nuclear lysate.

NF κB [4] = experiment: Level of active NF κB in primary human ovarian cancer cells from ascitic fluid (StressXpress NF κB p50 ELISA); format: cell-based; conditions: 8 hours
ovarian cancer [5] = conditions: intraperitoneal alpha-interferon in combination with carboplatinum; cited from earlier work
ovarian cancer [6] = conditions: gamma-interferon added to cisplatinum+cyclophosphamide; cited from earlier work

N.N.[Cl][Pt][Cl] [Cisplatin, cisplatin]
level of NF kB (mean) (NF κB [1]; Cisplatin (CP) alone): 380 percent from the control and 356 percent from the control and 420 percent from the control | interferon level (mean) (alpha interferon; Cisplatin (CP) alone): 4 pg/mL and 2 pg/mL and 3 pg/mL | day when 50% of animals in the group were still alive (SK-OV-3 cells; Cisplatin (CP) alone): 34 days and 44 days and 42 days | clinical outcome (ovarian cancer [2]): No therapy effects were observed | level of active NF κB (as percents of control) in the absence of CMA (NF κB [3]; Cisplatin alone): 117% and 121% and 120% and 119% and 118% and 125% and 122%

O=P1(N(CCCl)CCCl)NCCCO1 (centres unmarked) [Cyclophosphamide, cyclophosphamide]
level of active NF κB (as percents of control) in the absence of CMA (NF κB [3]; Cyclophosphamide alone): 221% and 217% and 210% and 214%

COc1cccc2c1C(=O)c1c(O)c3c(c(O)c1C2=O)C[C@@](O)(C(=O)CO)C[C@@H]3O[C@H]1C[C@H](N)[C@H](O)[C@H](C)O1 [Doxorubicin, doxorubicin]
level of NF kB (mean) (NF κB [1]; Doxorubicin (Dox) alone): 450 percent from the control and 470 percent from the control and 430 percent from the control | interferon level (mean) (alpha interferon; Doxorubicin (Dox) alone): 3 pg/mL and 4 pg/mL and 5 pg/mL | day when 50% of animals in the group were still alive (SK-OV-3 cells; Doxorubicin (Dox) alone): 36 days and 37 days and 43 days | level of active NF κB (as percents of control) in the absence of CMA (NF κB [3]; Doxorubicin alone): 524% and 538% and 550% and 497% and 562% and 540% and 531%

CC(=O)O[C@H]1C(=O)[C@@]2(C)[C@H]([C@H](OC(=O)c3ccccc3)[C@]3(O)C[C@H](OC(=O)[C@H](O)[C@@H](NC(=O)c4ccccc4)c4ccccc4)C(C)=C1C3(C)C)[C@]1(OC(C)=O)CO[C@@H]1C[C@@H]2O [Paclitaxel, paclitaxel, reference compound]
level of NF kB (mean) (NF κB [1]; Paclitaxel (Pcl) alone): 420 percent from the control and 411 percent from the control and 442 percent from the control | interferon level (mean) (alpha interferon; Paclitaxel (Pcl) alone): 8 pg/mL and 6 pg/mL and 5 pg/mL | day when 50% of animals in the group were still alive (SK-OV-3 cells; Paclitaxel (Pcl) alone): 41 days and 40 days and 38 days

CCCOC(=O)Cn1c2ccccc2c(=O)c2ccccc21 [PropCMA]
active NF κB (in percents of control) (NF κB [4]; 1 × 10^−10 M, Patient 1): 32%/10 | active NF κB (in percents of control) (NF κB [4]; 1 × 10^−10 M, Patient 2): 31%/20 | active NF κB (in percents of control) (NF κB [4]; 1 × 10^−10 M, Patient 3): 36%/20 | active NF κB (in percents of control) (NF κB [4]; 1 × 10^−12 M, Patient 1): 68%/10 | active NF κB (in percents of control) (NF κB [4]; 1 × 10^−12 M, Patient 2): 59%/20 | active NF κB (in percents of control) (NF κB [4]; 1 × 10^−12 M, Patient 3): 64%/20 | active NF κB (in percents of control) (NF κB [4]; 1 × 10^−13 M, Patient 1): 89%/0 | active NF κB (in percents of control) (NF κB [4]; 1 × 10^−13 M, Patient 2): 91%/0 | active NF κB (in percents of control) (NF κB [4]; 1 × 10^−13 M, Patient 3): 81%/0 | level of active NF κB (as percents of control) in the presence of CMA (NF κB [3]; 5-FU + CMA): 86% | level of active NF κB (as percents of control) (NF κB [3]; CMA, its salt or ester 1 × 10^−12 M + Vechicle): 84% | level of active NF κB (as percents of control) in the presence of CMA (NF κB [3]; Cisplatin + CMA): 66% | level of active NF κB (as percents of control) in the presence of CMA (NF κB [3]; Cyclophosphamide + CMA): 95% | level of active NF κB (as percents of control) in the presence of CMA (NF κB [3]; Doxorubicin + CMA): 178%

alpha-interferon
efficacy in respect of ovarian cancer (ovarian cancer [5]): did not prove any efficacy

gamma-interferon: cytokine immunomodulator with antiviral and antitumor activity
number of patients who had no progression within the 3 year period (ovarian cancer [6]): 51%
